Substitutions are numbered along the chain they refer to.
Experiments:
hVAChT F231A [1] = target: T1, hVAChT F231A (Homo sapiens, UniProt Q16572, F231A); assay: [3H]vesamicol saturation binding; settings: pH 7.4
T1 sequence (Q16572 1-532 F231A): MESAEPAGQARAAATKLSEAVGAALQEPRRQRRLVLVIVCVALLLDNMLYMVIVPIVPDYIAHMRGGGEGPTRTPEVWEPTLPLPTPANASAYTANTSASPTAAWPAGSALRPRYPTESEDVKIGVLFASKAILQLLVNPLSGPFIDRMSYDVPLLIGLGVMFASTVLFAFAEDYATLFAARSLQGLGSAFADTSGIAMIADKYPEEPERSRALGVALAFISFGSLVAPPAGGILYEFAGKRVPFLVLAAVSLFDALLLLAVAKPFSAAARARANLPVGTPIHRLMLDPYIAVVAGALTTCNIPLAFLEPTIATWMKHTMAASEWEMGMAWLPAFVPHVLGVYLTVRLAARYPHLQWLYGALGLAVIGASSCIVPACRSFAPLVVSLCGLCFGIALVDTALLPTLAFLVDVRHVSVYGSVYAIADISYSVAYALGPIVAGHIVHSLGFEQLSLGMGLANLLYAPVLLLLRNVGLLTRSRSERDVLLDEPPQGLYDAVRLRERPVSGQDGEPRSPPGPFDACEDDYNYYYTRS

hVAChT wild-type = target: T2, hVAChT wild-type (Homo sapiens, UniProt Q16572); assay: [3H]vesamicol saturation binding; settings: WT hVAChT; pH 7.4; per mg postnuclear supernatant
T2 sequence (Q16572 1-532): T1 sequence (Q16572 1-532 F231A) with A231F

hVAChT A334F [2] = target: T3, hVAChT A334F (Homo sapiens, UniProt Q16572, A334F); assay: [3H]vesamicol saturation binding; settings: pH 7.4
T3 sequence (Q16572 1-532 A334F): T1 sequence (Q16572 1-532 F231A) with A231F, A334F

hVAChT A321F = target: T4, hVAChT A321F (Homo sapiens, UniProt Q16572, A321F); assay: [3H]ACh transport; type: biochemical
T4 sequence (Q16572 1-532 A321F): T1 sequence (Q16572 1-532 F231A) with A231F, A321F

hVAChT A334F [3] = target: T3, hVAChT A334F; assay: ACh equilibrium binding by competition against [3H]vesamicol; settings: pH 7.4, monophasic fit, FHA fixed to 1
hVAChT M316A = target: T5, hVAChT M316A (Homo sapiens, UniProt Q16572, M316A); assay: as above
T5 sequence (Q16572 1-532 M316A): T1 sequence (Q16572 1-532 F231A) with A231F, M316A

hVAChT F231A [4] = target: T1, hVAChT F231A; assay: as above

Vmax/Bmax, ACh transport normalized to Bmax (hVAChT A321F; pH 7.4) [min⁻¹]	Km (hVAChT A321F; read-out: KM, Michaelis-Menten constant for ACh transport, pH 7.4) [µM]	FHA, fraction of the ACh sites that have high affinity (hVAChT A334F [3])	Kd (hVAChT M316A) [mM]	FHA, fraction of the ACh sites that have high affinity (hVAChT M316A; M316A hVAChT, pH 7.4)	Kd (hVAChT F231A [4]) [mM]	FHA, fraction of the ACh sites that have high affinity (hVAChT F231A [4]; F231A hVAChT, pH 7.4)	Structure (SMILES)	Bmax, maximal specific [3H]vesamicol binding (VAChT expression level) (hVAChT F231A [1]) [pmol/mg]	Bmax, maximal specific [3H]vesamicol binding (VAChT expression level) (hVAChT wild-type) [pmol/mg]	Bmax, maximal specific [3H]vesamicol binding (VAChT expression level) (hVAChT A334F [2]) [pmol/mg]
							O[C@@H]1CCCC[C@H]1N1CCC(c2ccccc2)CC1 (racemic) [vesamicol, ( )-trans-2-(4-phenylpiperidino)cyclohexanol]	64 ± 4	50 ± 1	13 ± 1
6.0 ± 0.5	350 ± 100	1.0	8.3 ± 0.7	0.74 ± 0.03	5.8 ± 1.2	0.67 ± 0.05	CC(=O)OCC[N+](C)(C)C [ACh, acetylcholine]			

— publication PMC2962730 (Journal of neurochemistry, 2010)
